The molecule `CC(Nc1ccc(Cl)c(Cl)c1)C(=O)NC(=O)[C@@H](N)C(C)C` (mixture of isomers) [Example 6, N-[N-(3,4dichlorophenyl)-D,L-alanyl]-L-valine amide] displayed a melting point of 156 to 158 °C.
In turn, `CC(Nc1ccc(Cl)c(Cl)c1)C(=O)N[C@H](C(=O)N(C)C)C(C)C` (mixture of isomers) [Example 8, N-[N-(3,4-dichlorophenyl)-D,L-alanyl]-L-valine N,N-dimethyl amide] gave a melting point of 145 to 160 °C.
In turn, `COC(=O)[C@H](Cc1c[nH]c2ccccc12)NC(=O)C(C)Nc1ccc(Cl)c(Cl)c1` (mixture of isomers) [Example 16, N-[N-(3,4dichlorophenyl)-D,L-alanyl]-L-tryptophan methyl ester] displayed a melting point of 54 to 66 °C.
The value for `COC(=O)[C@H](CC(=O)O)NC(=O)C(C)Nc1ccc(Cl)c(Cl)c1` (mixture of isomers) [Example 18, N-[N-(3,4dichlorophenyl)-D,L-alanyl]-L-aspartic acid methyl ester] was 53.5 to 56 °C; that for `CC(Nc1ccc(Cl)c(Cl)c1)C(=O)NC(=O)[C@@H](N)Cc1ccccc1` (mixture of isomers) [Example 36, N-[N-(3,4dichlorophenyl)-D,L-alanyl]-L-phenylalanine amide] was 177 to 179 °C.
As for `COC(=O)[C@H](Cc1c[nH]cn1)NC(=O)C(C)Nc1ccc(Cl)c(Cl)c1` (mixture of isomers) [Example 46, N-[N-(3,4-dichlorophenyl)-D,L-alanyl]-L-histidine methyl ester], the figure is 55 to 60 °C; as for `COC(=O)[C@H](C)NC(=O)C(C)Nc1cc(F)cc(F)c1` (mixture of isomers) [Example 49, N-[N-(3,5-difluorophenyl)-D,L-alanyl]-L-alanine methyl ester], 93 to 95 °C; as for `CCCC[C@H](NC(=O)C(C)Nc1cc(F)cc(F)c1)C(=O)OC` (mixture of isomers) [Example 50, N-[N-(3,5-difluorophenyl)-D,L-alanyl]-(S)-2-aminohexanoic acid methyl ester], 93 to 95 °C.
The molecule `COC(=O)[C@H](CC(C)C)NC(=O)[C@H](C)Nc1ccc(Cl)c(Cl)c1` [Example 11, N-[N-(3,4dichlorophenyl)-L-alanyl]-L-leucine methyl ester] displayed a melting point of 120 to 132 °C.
For the molecule `COC(=O)[C@H](Cc1ccccc1)NC(=O)[C@H](C)Nc1ccc(Cl)c(Cl)c1` [Example 12, N-[N-(3,4-dichlorophenyl)-L-alanyl]-L-phenylalanine methyl ester], the melting point lay in the range of 122 to 124.5 °C.
As for `CCCC[C@H](NC(=O)[C@H](C)Nc1ccc(Cl)c(Cl)c1)C(=O)OC` [Example 15, N-[N-(3,4dichlorophenyl)-L-alanyl]-(S)-2-aminohexanoic acid methyl ester], the figure is 163 to 165 °C; as for `CCCC[C@H](N)C(=O)NC(=O)[C@H](C)Nc1ccc(Cl)c(Cl)c1` [Example 40, N-[N-(3,4-dichlorophenyl)-L-alanyl]-(S)-2-aminohexanamide], 156 to 161 °C.
For the molecule `CCCC[C@H](NC(=O)[C@H](C)Nc1nc2ccccc2s1)C(=O)OC` [Example 48, N-[N-(benzothiazol-2-yl)-L-alanyl]-(S)-2-aminohexanoic acid methyl ester], the melting point fell in the range of 99 to 120 °C.
The value for `CCCC[C@H](N)C(=O)NC(=O)[C@H](C)Nc1ccc(Cl)c(Cl)c1` [Example 51, N-[N-(3,4dichlorophenyl)-L-alanyl]-(S)-2-aminohexanamide] was 184 to 186 °C.

Broadly, the melting point is the temperature, or range, at which the solid turns liquid.

These data come from patent US6495693B2, “N-(aryl/heteroaryl) amino acid derivatives, pharmaceutical compositions comprising same, and methods for inhibiting β-amyloid peptide release and/or its synthesis by use of such compounds” (Athena Neurosciences, Inc., priority 1996, dated 2002).
